Test results reported in patent publication US20230234948A1, “CYCLOPROPYL DIHYDROQUINOLINE SULFONAMIDE COMPOUNDS” (AMGEN INC., priority 2020, published 2023).

Columns and labels:
CYP3A4 = experiment: Human CYP 3A4 induction assay (mRNA, cryopreserved human hepatocytes); type: in vitro ADME; conditions: 10 uM test compound, 72 hours, percent of control (rifampin positive control)
Method: Human CYP 3A4 Induction Assay
Cryopreserved human hepatocytes were seeded in 96-well collagen coated plates at 70,000 cells per well in hepatocyte plating media (HPM, final concentrations: 1× Dulbecco's Modified Eagle's Medium, 0.1 μM dexamethasone, 10% fetal bovine serum, 1×ITS, 1×PSG) followed by incubation at 37° C. under 5% CO2 and 90% relative humidity for 2 days to allow hepatocytes to form a confluent layer. On Day 3, hepatocytes were treated with either test compound or rifampin (20 μM, positive control for CYP3A induction) prepared in hepatocyte incubation media ((HIM, final concentrations: 1× William's Medium E, 0.1 μM dexamethasone, 1×ITS, 1×PSG). Treatment was performed for 72 hours with either 2 concentrations (2 μM or 10 μM) or a range of concentrations (0.001 μM to 100 μM) of the test compound to obtain full dose-response curve. Fresh media containing the relevant concentrations of the test compound was replaced every day until the samples were processed. After 72 hours of incubation, samples were processed for mRNA analysis using bDNA technology using manufacturer's instructions (Affymetrix, Fremont, Calif.). Cell viability was tested at the end of the experiment using MTT assay kit (Roche Diagnostics, Basel, Switzerland). Data was analyzed and presented as percent of control (POC) and Emax and EC50 obtained when appropriate according to guidance from Center for Drug Evaluation and Research (CDER), 2006, Guidance for Industry, Drug Interaction Studies—Study Design, Data Analysis, and Implications for Dosing and Labeling.
Cryopreserved human hepatocytes were seeded in 96-well collagen coated plates at 70,000 cells per well in hepatocyte plating media (HPM, final concentrations: 1× Dulbecco's Modified Eagle's Medium, 0.1 μM dexamethasone, 10% fetal bovine serum, 1×ITS, 1×PSG) followed by incubation at 37° C. under 5% CO2 and 90% relative humidity for 2 days to allow hepatocytes to form a confluent layer. On Day 3, hepatocytes were treated with either test compound or rifampin (20 μM, positive control for CYP3A induction) prepared in hepatocyte incubation media ((HIM, final concentrations: 1× William's Medium E, 0.1 μM dexamethasone, 1×ITS, 1×PSG). Treatment was performed for 72 hours with either 2 concentrations (2 μM or 10 μM) or a range of concentrations (0.001 μM to 100 μM) of the test compound to obtain full dose-response curve. Fresh media containing the relevant concentrations of the test compound was replaced every day until the samples were processed. After 72 hours of incubation, samples were processed for mRNA analysis using bDNA technology using manufacturer's instructions (Affymetrix, Fremont, Calif.). Cell viability was tested at the end of the experiment using MTT assay kit (Roche Diagnostics, Basel, Switzerland). Data was analyzed and presented as percent of control (POC) and Emax and EC50 obtained when appropriate, as described in Halladay, J. et al, 2012, An “all-inclusive” 96-well cytochrome P450 induction method: Measuring enzyme activity, mRNA levels, protein levels, and cytotoxicity from one well using cryopreserved human hepatocytes, Pharmacological and Toxicological Methods, 66:270-275.
The cytochrome P450 (CYP) is a well-known superfamily of enzymes that are responsible for the oxidative and reductive metabolic transformation of medications used in clinical practice. In addition, the CYP enzymes are commonly associated with causing many clinically relevant drug-drug interactions. […]

Human NaV1.7 = biological target: T1, Human NaV1.7 (Homo sapiens, UniProt Q15858); experiment: Ionworks Barracuda (IWB) automated patch clamp assay; type: cell-based; conditions: human NaV1.7 in HEK cells, population patch-clamp, state- and use-dependent voltage protocol; read-out: hNaV1.7 IWB-U IC50
T1 construct: expressed in transfected cells; host or cells: Spiking HEK cells (without Kir2.1 transfection)
T1 sequence (Q15858 whole entry): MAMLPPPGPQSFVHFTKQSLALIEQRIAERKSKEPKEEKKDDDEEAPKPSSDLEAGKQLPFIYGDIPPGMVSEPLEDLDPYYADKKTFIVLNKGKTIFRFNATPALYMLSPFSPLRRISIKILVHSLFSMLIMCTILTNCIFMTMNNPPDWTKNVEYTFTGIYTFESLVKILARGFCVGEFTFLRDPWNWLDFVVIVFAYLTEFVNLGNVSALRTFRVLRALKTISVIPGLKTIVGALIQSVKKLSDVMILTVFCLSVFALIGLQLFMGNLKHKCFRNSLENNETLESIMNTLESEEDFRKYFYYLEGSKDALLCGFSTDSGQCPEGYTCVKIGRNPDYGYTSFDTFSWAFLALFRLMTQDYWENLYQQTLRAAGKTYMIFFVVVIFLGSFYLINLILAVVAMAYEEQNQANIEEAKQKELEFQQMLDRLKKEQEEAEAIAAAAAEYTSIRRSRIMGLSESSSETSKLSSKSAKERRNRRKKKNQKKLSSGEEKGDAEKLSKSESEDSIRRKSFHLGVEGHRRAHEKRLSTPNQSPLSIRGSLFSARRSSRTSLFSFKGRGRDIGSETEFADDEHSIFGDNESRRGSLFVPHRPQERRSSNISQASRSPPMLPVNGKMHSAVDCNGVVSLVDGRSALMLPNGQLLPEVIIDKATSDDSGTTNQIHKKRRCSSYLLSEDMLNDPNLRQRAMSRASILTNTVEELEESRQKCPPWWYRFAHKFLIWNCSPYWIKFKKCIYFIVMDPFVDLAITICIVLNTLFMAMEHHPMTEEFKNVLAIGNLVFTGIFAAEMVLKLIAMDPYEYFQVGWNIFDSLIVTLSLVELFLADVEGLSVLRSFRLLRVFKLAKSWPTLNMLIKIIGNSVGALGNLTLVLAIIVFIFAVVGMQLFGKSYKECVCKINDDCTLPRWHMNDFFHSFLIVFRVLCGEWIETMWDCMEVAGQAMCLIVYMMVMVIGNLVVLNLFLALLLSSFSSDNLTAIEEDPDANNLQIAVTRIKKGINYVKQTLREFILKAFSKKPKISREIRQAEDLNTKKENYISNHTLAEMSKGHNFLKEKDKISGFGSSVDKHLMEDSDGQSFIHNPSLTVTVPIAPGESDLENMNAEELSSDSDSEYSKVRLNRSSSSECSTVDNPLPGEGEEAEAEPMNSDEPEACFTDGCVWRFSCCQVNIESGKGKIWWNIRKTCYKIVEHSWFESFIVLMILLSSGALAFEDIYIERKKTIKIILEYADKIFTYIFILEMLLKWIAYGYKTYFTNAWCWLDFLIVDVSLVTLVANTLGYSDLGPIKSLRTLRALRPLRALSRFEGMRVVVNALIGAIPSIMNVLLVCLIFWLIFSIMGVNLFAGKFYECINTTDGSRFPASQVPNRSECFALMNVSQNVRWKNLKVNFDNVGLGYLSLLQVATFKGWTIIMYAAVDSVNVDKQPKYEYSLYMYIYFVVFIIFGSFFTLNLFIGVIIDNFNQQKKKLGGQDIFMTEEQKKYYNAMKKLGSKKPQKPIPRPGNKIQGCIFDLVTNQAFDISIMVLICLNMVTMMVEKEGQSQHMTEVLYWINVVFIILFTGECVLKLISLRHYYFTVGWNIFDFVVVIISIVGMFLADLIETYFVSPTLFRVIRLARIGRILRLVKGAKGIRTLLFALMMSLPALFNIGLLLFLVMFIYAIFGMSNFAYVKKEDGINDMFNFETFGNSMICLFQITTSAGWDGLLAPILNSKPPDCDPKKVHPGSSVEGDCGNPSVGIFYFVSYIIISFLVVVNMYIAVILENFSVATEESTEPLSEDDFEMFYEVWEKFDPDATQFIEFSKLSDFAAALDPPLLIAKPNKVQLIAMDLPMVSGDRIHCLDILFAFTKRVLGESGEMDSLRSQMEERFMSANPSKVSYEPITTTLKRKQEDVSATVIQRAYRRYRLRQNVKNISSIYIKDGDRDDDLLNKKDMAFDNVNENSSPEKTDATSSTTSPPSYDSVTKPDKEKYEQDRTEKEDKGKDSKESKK
Method: Ionworks Barracuda (IWB) Automated Patch Clamp Assay (Same Protocol for Both Human and Mouse)
Human NaV1.7 currents were recorded in population patch-clamp mode with the IWB automated electrophysiology system (Molecular Devices, LLC, Sunnyvale, Calif.). Spiking HEK cells (without Kir2.1 transfection) were cultured and prepared for recordings as previously described for IonWorks Quattro testing^1. The external solution consisted of the following (in mM): NaCl 140, KCl 5, CaCl2 2, MgCl2 1, HEPES 10, and glucose 11, pH 7.4, with N-methyl-D-glucamine at 320 mOsmol. […] From a holding potential of −110 mV, currents were elicited by a train of 26 depolarizations of 150 ms duration to −20 mV at a frequency of 5 Hz. Cells were then clamped to −20 mV for a period of 4 minutes in the presence of a single concentration of test compound. Following this compound incubation period, cells were clamped to −110 mV for three seconds to recover unbound channels and put through the same 26 pulse voltage protocol as above. Peak inward current during the 26th pulse to −20 mV in the presence of compound was divided by the peak inward current evoked by the 26th pulse to −20 mV in the absence of compound to determine percent inhibition. Concentration-response curves of percent inhibition as a function of concentration were generated to calculate IC50 values as described in Kornecook, T. J.; Yin, R.; Altmann, S.; et al. Pharmacologic Characterization of AMG8379, a Potent and Selective Small Molecule Sulfonamide Antagonist of the Voltage-Gated Sodium Channel NaV1. 7.
The potency of the compounds of the present invention were evaluated on human NaV1.7 channels using the above described IonWorks Barracuda automated electrophysiology platform that evaluates the ability of compounds to block sodium conductance through NaV1.7 channels. A voltage-protocol that prosecutes both state-dependent as well as use-dependent inhibition was used as these modes of action are thought to be more relevant for the native state of NaV1.7 channels in pain sensing neurons in vivo.

Compound | CYP3A4 mRNA Induct Hu 10 uM POC (CYP3A4) [%] | IC50 (Human NaV1.7) [nM]
COc1cc([C@@H]2C[C@H]2C(F)(F)F)c(F)cc1-n1c(=O)ccc2cc(S(=O)(=O)Nc3ccon3)c(F)cc21 (atropisomer, axis not shown; (P)) [Example 45, (P)-7-fluoro-1-(5-fluoro-2-methoxy-4-((1R,2R)-2-(trifluoromethyl)cyclopropyl)phenyl)-N-(isoxazol-3-yl)-2-oxo-1,2-dihydroquinoline-6-sulfonamide] | 24.57 | 
COc1cc([C@@H]2C[C@H]2C(F)(F)F)ccc1-n1c(=O)ccc2cc(S(=O)(=O)Nc3ccon3)ccc21 (single isomer, unassigned) [Example 38] | 29.06 | 10
COc1cc([C@H]2C[C@@H]2C(F)(F)F)ccc1-n1c(=O)ccc2cc(S(=O)(=O)Nc3ccon3)ccc21 (single isomer, unassigned) [Example 39] | 38.35 | 8
(P)-1-(5-fluoro-2-methoxy-4-((1S,2S)-2-((trifluoromethoxy)methyl)cyclopropyl)phenyl)-N-(isoxazol-3-yl)-2-oxo-1,2-dihydroquinoline-6-sulfonamide [Example 33] | 139.9 | 4
